Patent US8796289B2 (AbbVie Inc., priority 2011, dated 2014)

Biological target: GST-tagged-Wee1 kinase (Homo sapiens, UniProt P30291)
Test: Wee1 time-resolved fluorescence equilibrium binding assay (displacement of Oregon Green-labeled ATP-competitive kinase probe)
Experimental: Wee1 kinase was assayed using a time-resolved fluorescence equilibrium binding assay monitoring displacement of a rapidly reversible Oregon Green-labeled ATP-competitive kinase probe (N-(2-(2-(2-(4-(4-(5-chloro-4-(2-(1-hydroxycyclobutyl)thiazol-5-yl)-1H-pyrrolo[2,3-b]pyridin-2-yl)phenyl)piperazin-1-yl)ethoxy)ethoxy)ethyl)-2′,7′-difluoro-3′,6′-dihydroxy-3-oxo-3H-spiro[isobenzofuran-1,9′-xanthene]-5-carboxamide) by competitive Wee1 inhibitors.

GST-tagged-Wee1 kinase, sequence (P30291 whole entry): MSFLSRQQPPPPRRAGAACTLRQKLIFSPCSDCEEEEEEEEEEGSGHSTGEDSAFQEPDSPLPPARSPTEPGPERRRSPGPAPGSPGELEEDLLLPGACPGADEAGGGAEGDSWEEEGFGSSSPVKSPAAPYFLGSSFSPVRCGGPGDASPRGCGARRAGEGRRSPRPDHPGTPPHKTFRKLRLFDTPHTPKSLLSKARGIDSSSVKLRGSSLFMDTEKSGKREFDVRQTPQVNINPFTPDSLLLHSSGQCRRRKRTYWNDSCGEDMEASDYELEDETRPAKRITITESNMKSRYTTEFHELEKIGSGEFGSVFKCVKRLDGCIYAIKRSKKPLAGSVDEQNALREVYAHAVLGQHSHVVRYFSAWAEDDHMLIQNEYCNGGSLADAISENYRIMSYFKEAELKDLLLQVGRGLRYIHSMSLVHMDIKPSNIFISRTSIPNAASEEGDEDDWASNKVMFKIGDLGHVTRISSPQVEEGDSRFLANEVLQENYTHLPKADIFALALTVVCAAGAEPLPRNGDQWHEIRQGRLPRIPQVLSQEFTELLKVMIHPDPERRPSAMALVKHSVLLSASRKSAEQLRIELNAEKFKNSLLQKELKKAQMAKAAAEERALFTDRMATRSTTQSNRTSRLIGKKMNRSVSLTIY

Compound	Ki
CN1CCN(c2ccc(Nc3ncc4c(=O)n(-c5c(Cl)cccc5Cl)nc(-c5cccc(C(=O)N(C)C)c5)c4n3)cc2)CC1 [Example 189, 3-[6-(2,6-dichlorophenyl)-2-{[4-(4-methylpiperazin-1-yl)phenyl]amino}-5-oxo-5,6-dihydropyrimido[4,5-d]pyridazin-8-yl]-N,N-dimethylbenzamide]	0.02 nM
CN1CCN(c2ccc(Nc3ncc4c(=O)n(-c5c(Cl)cccc5Cl)nc(-c5cccc(C(=O)O)c5)c4n3)cc2)CC1 [Example 190, 3-[6-(2,6-dichlorophenyl)-2-{[4-(4-methylpiperazin-1-yl)phenyl]amino}-5-oxo-5,6-dihydropyrimido[4,5-d]pyridazin-8-yl]benzoic acid]	0.01 nM
CNC(=O)c1cccc(-c2nn(-c3c(Cl)cccc3Cl)c(=O)c3cnc(Nc4ccc(N5CCN(C)CC5)cc4)nc23)c1 [Example 191, 3-[6-(2,6-dichlorophenyl)-2-{[4-(4-methylpiperazin-1-yl)phenyl]amino}-5-oxo-5,6-dihydropyrimido[4,5-d]pyridazin-8-yl]-N-methylbenzamide]	0.03 nM
CN1CCN(C(=O)c2cccc(-c3nn(-c4c(Cl)cccc4Cl)c(=O)c4cnc(Nc5ccc(N6CCN(C)CC6)cc5)nc34)c2)CC1 [Example 192, 6-(2,6-dichlorophenyl)-8-{3-[(4-methylpiperazin-1-yl)carbonyl]phenyl}-2-{[4-(4-methylpiperazin-1-yl)phenyl]amino}pyrimido[4,5-d]pyridazin-5(6H)-one]	0.02 nM
CN1CCN(c2ccc(Nc3ncc4c(=O)n(-c5c(Cl)cccc5Cl)nc(-c5cccc(C(=O)N6CCCCC6)c5)c4n3)cc2)CC1 [Example 194, 6-(2,6-dichlorophenyl)-2-{[4-(4-methylpiperazin-1-yl)phenyl]amino}-8-[3-(piperidin-1-ylcarbonyl)phenyl]pyrimido[4,5-d]pyridazin-5(6H)-one]	< 1 nM
C=CCn1nc(C2CC(F)(F)C2)c2nc(Nc3ccc(N4CCN(C)CC4)cc3)ncc2c1=O [Example 196, 8-(3,3-difluorocyclobutyl)-2-{[4-(4-methylpiperazin-1-yl)phenyl]amino}-6-(prop-2-en-1-yl)pyrimido[4,5-d]pyridazin-5(6H)-one]	230 nM
CN1CCN(c2ccc(Nc3ncc4c(=O)n(-c5ccccn5)nc(C5CC(F)(F)C5)c4n3)cc2)CC1 [Example 197, 8-(3,3-difluorocyclobutyl)-2-{[4-(4-methylpiperazin-1-yl)phenyl]amino}-6-(pyridin-2-yl)pyrimido[4,5-d]pyridazin-5(6H)-one]	100 nM
CN1CCN(c2ccc(Nc3ncc4c(=O)n(-c5ccccc5F)nc(C5CC(F)(F)C5)c4n3)cc2)CC1 [Example 198, 8-(3,3-difluorocyclobutyl)-6-(2-fluorophenyl)-2-{[4-(4-methylpiperazin-1-yl)phenyl]amino}pyrimido[4,5-d]pyridazin-5(6H)-one]	25 nM
CN1CCN(c2ccc(Nc3ncc4c(=O)n(-c5cccc(F)c5)nc(C5CC(F)(F)C5)c4n3)cc2)CC1 [Example 199, 8-(3,3-difluorocyclobutyl)-6-(3-fluorophenyl)-2-{[4-(4-methylpiperazin-1-yl)phenyl]amino}pyrimido[4,5-d]pyridazin-5(6H)-one]	82 nM
CN1CCN(c2ccc(Nc3ncc4c(=O)n(-c5c(Cl)cccc5Cl)nc(-c5cnn(CCCl)c5)c4n3)cc2)CC1 [Example 200, 8-[1-(2-chloroethyl)-1H-pyrazol-4-yl]-6-(2,6-dichlorophenyl)-2-{[4-(4-methylpiperazin-1-yl)phenyl]amino}pyrimido[4,5-d]pyridazin-5(6H)-one]	0.3 nM
C=Cn1cc(-c2nn(-c3c(Cl)cccc3Cl)c(=O)c3cnc(Nc4ccc(N5CCN(C)CC5)cc4)nc23)cn1 [Example 201, 6-(2,6-dichlorophenyl)-8-(1-ethenyl-1H-pyrazol-4-yl)-2-{[4-(4-methylpiperazin-1-yl)phenyl]amino}pyrimido[4,5-d]pyridazin-5(6H)-one]	0.2 nM
